Assay: Storage stability of dispersions of solid powderous agents in vehicles
Format: physicochemical
Settings: as little as
Excerpt: Depending on the chemical and physical nature of the solid and its particle size, a minimum amount of the solid is required to form the stable suspension of the invention. For a given substance of given physical and chemical nature as well of particle size, this minimum amount can be easily determined by experimentation, which is within the reach of a person skilled in the art. With some substances, such as hydrocortisone, stable suspensions are obtained by incorporating as little as 3% by weight of the substance into the fluid carrier. A preferred average particle size (with 50% or more of the particles being below average) is one of less than 550 μm or 250 μm, in particular of less than 100 μm or 20 μm, most preferred of less than 5 μm or 2 μm. The stabilizing effect of the particulate solid of the invention can also be obtained by a mixture of particulate substances, such as a particulate pharmacologically or cosmetically active agent, for instance hydrocortisone, and a particulate pharmaceutically or cosmetically acceptable excipient, such as microcrystalline cellulose. The powderous agents used are practically insoluble in the vehicles.

Compound: C[C@]12CCC(=O)C=C1CC[C@@H]1[C@@H]2[C@@H](O)C[C@@]2(C)[C@H]1CC[C@]2(O)C(=O)CO [hydrocortisone, Hydrocortisone]
- amount of substance incorporated into the fluid carrier at which stable suspensions are obtained: 3 % by weight
